Test results as given in patent US8577617B2, “Metabolic phenotyping” (priority 2002, dated 2013).
“And” between values parts separate entries of the source, which are not always exact repeats. Equal values may be shown once.

Tested on: male Sprague-Dawley rats
Assay: Histopathology of liver after dosing galactosamine HCl
Assay type: in vivo, rat
Settings: for histopathological changes: 200 mg/kg i.p.
Description: Thirty young adult age-matched male Sprague-Dawley rats were obtained from Charles River, France. After observation to ensure that they each appeared healthy they were placed in individual metabolism cages with free access to water and a standard commercial laboratory diet (diet AO4C from Usine d'Alimentation Rationnelle, Villemoisson-sur-Orge, France). The laboratory temperature was maintained at 20.+−−.2 degrees C. and the relative humidity at 60.±.20%. The laboratory air was filtered and changed 14 times per hour. A fixed ‘12 hours light-12 hours dark’ cycle was imposed. The study commenced after a short period of cage ‘acclimatisation’. At the time of dosing (at the start of day 1) the growing rats were each approximately 260 g in mass. Galactosamine (abbreviated GaIN) HCl (from Sigma, France) was dissolved in physiological saline and dosed by intraperitoneal injection at either 200 mg/kg or at 800 mg/kg; ten animals (nos. 101-110) received the low dose and ten animals (nos. 201-210) received the high dose. Ten control animals (nos. 1-10) received an oral dose of corn oil. Five of each group of ten rats were euthanased by means of CO2 on day 2 with the remainder being euthanased by the same technique on day 8. The early-euthanased rats were numbers 6-10, 106-110 and 206-210. The late-euthanased rats were numbers 1-5, 101-105 and 201-205. Blood was sampled from the orbital sinus, under isoflurane anaesthesia. Blood was sampled from all animals on day −3 and just prior to euthanasia on either day 2 or day 8. Following euthanasia each rat was sampled for histopathological examination with the sampling including taking ten liver samples from each rat (two from each liver lobe). The blood samples were collected into vials containing lithium heparin as anticoagulant and immediately centrifuged at approx. minus four degrees C. to separate plasma. A portion of each plasma sample was analysed at thirty degrees C. on an AU600 multiparametric clinical analyser (Olympus) for a range of clinical chemistry parameters including alanine aminotransferase (ALT) and aspartate aminotransferase (AST) amongst many others.

## Cl.N[C@H]1C(O)O[C@H](CO)[C@H](O)[C@@H]1O (some centres unmarked) [galactosamine HCl, galactosamine hydrochloride]
Day 2
  histopathological changes: No differences
Day 8
  histopathological changes: No differences
800 mg/kg i.p., day 2
  animals with multifocal randomly scattered foci of hepatocellular necrosis: hepatocellular necrosis were present in 4/5
800 mg/kg i.p., day 2, individual animals 206-210, hydrochloride
  severity of changes (hepatocellular necrosis): 207 - mild and 206, 210 - marked and 209 - severe and 208 - none
800 mg/kg i.p., day 8
  animals with minimal bile duct hyperplasia: Minimal bile duct hyperplasia was found in 2/5
